This is an account of results in US9868695B2 (priority 2014, dated 2018).

SMILES strings stand for the structures. ≈ marks a conversion by molar mass, not a printed value. Read-outs that look alike come from different tables or passages of the source.

What is called EC50 is the midpoint of the concentration-response curve. In general, solubility refers to the dissolved amount per volume that the medium holds. Broadly, the melting point is the temperature, or range, at which the solid turns liquid. One may read the IC50 as the midpoint of a concentration-inhibition curve. A lower IC50 goes with higher potency.

One data set relates to Ehrlich solid tumor. As to the kind of experiment: In vivo activity in Ehrlich solid tumor model. More on the design: species or system swiss mice. The note with it: for % Tumor Growth Inhibition: day 13 vs saline control; for Mortality: dead/group size. Here is the method: Ehrlich ascites carcinoma (EAC) cells were collected from the peritoneal cavity of the swiss mice (animal house of IIIM registered eith CPCSEA; registration no. 67/99/CPCSEA) weighing 18-23 gm, harbouring 8-10 days old ascitic tumor. 1×10^7 EAC cells were injected intramuscularly in the right thigh of 38 swiss male mice selected for the experiment on day 0. The next day, animals were randomized and divided into five groups. Four treatment groups contained 7 animals each and one control group contained 10 animals. Treatment was given as follows:
Group I: 1 (0.75 mg/kg, i/p) from day 1-9.
Group II: 1g (1 mg/kg, i/p) from day 1-9.
The third treatment group was treated with 5-fluorouracil (22 mg/kg, i/p) from day 1-9 and it served as positive control. The control group was similarly administered normal saline (0.2 ml, i/p) from day 1-9. On day 9 & 13, tumor bearing thigh of each animal was shaved and longest and shortest diameters of the tumor were measured with the help of vernier caliper. Tumor weight of each animal was calculated using the following formula.
The percent tumor growth inhibition was calculated on day 13 by comparing the average values of treated groups with that of control group. Tumor growth in saline treated control animals was taken to be 100%.

A further data set concerns P-gp. The data set is described as follows: P-gp induction assay, rhodamine123 (Rh123) cell exclusion method in LS-180 cells. The note with it: for % intracellular accumulation of Rh123 in LS180 cells: compound 100 nM, decrease indicates P-gp induction; for % intracellular accumulation of Rh123 in LS180 cells / EC50: 48 h; for EC50: read-out: EC50, induction of P-gp, P-gp overexpressing LS-180 cells. Here is the method:
All synthesized compounds were screened for their ability to induce P-gp by using rhodamine123 (Rh123) cell exclusion method. In this method, the P-gp function was evaluated in terms of rhodamine 123 (Rh123) accumulation and efflux. Briefly, the protocol used is as follows: Colorectal LS-180 cells (ECACC type, purchased from Sigma, Cat. no. 87021202, cell passage no. 52) were seeded at a density of 2×10^4 per well of 96 well plate and were allowed to grow for next 24 h. Cells were further incubated with the test compounds, and were diluted to a final concentration of 100 nM and rifampicin (standard) to a final concentration of 10 μM in complete media for 48 h. The final concentration of DMSO was kept at 0.1%. Drugs were removed and cells were incubated with HANKS buffer for 40 minutes before further incubation with HANKS buffer (containing 10 μM of Rh123 as a P-gp substrate) for 90 minutes. At the end of Rh123 treatment cells were washed four times with cold PBS followed by cell lysis for 1 h by using 200 μl of lysis buffer (0.1% Triton X-100 and 0.2 N NaOH). A total of 100 μl of lysate was used for reading fluorescence of Rh123 at 485 nm/529 nm. Samples were normalized by dividing fluorescence of each sample with total protein present in the lysate. For EC50 determination, different concentrations of compound were used to treat LS180 cells for 48 h. EC50 was determined by plotting fluorescence of Rh123 against concentration of compound.

The subject of data set [1] is microtubules in HCT-116 cells. As to the kind of experiment: Effect of compounds on microtubules, confocal microscopy. The data set is classed as cell-based, Human. The note with it: 100 nM, 24 h, anti-α-tubulin staining, compared to control. Here is the method:
For detection of tubulins, HCT-116 cells (1×10^5 cells/well) were seeded on to 18 mm square cover slips in six well plates in complete medium. […] After the treatment period, cells were fixed in 4% paraformaldehyde for 10 min at room temperature and permeabilized using 0.5% Triton-X in PBS for 5 min. The cells were blocked with 10% goat serum for 20 min at room temperature. Microtubules were detected with a monoclonal α-tubulin antibody (Sigma, Catalogue number: T9026) diluted 1:100 in 0.1% Triton X-100 in PBS for 1 h at room temperature and Alexa Fluor 488 conjugated secondary antibody (Invitrogen) diluted 1:500 in PBS for 1 h at room temperature. Cells were then washed three times in PBS and stained with 4′,6-diamidino-2-phenylindole (DAPI 1 μg/ml in PBS). The cover slips were mounted over glass slides and cells were imaged by a laser scanning confocal microscope (Olympus Fluoview FV1000). The promising candidates identified through P-gp screening and antiproliferative screening were further studied for tubulin polymerization inhibition activity.

Data set [2] can be described thus: Thermodynamic equilibrium solubility. The format is physicochemical. The settings on record: 25 °C, thermodynamic from solid, 25±1° C. Here is the method:
The compounds were first dissolved in methanol to prepare stock solutions (100 and 1000 μg/mL). Different concentrations of stock solutions were pipetted into the 96-well plates and the solvent was evaporated to ensure that solid drug was present in the beginning of the experiment. Thereafter, 200 μl of the dissolution medium was added to the wells and 96-well plate was shaken horizontally at 300 rpm (Eppendorf Thermoblock Adapter, North America) for 4 h at room temperature (25±1° C.). The plates were kept overnight for equilibration of drug in medium. Later, the plates were centrifuged at 3000 rpm for 15 min (Jouan centrifuge BR4i). Supernatant (50 μl) was pipetted into UV 96-well plates (Corning® 96 Well Clear Flat Bottom UV-Transparent Microplate) for analyses with plate reader (SpectraMax Plus384) at λmax of 350 nm. The analyses were performed in triplicate for each compound. The solubility curve of concentration (μg/mL) vs absorbance was plotted to find out saturation point and the corresponding concentration was noted.

Another data set has as its system HCT-116. The data set is described as follows: Antiproliferative activity, MTT assay, HCT-116. The data set is classed as cell-based, Human. Here is the method: (§1) Human colon cancer cell lines HCT-116 (NCI, passage no. 5) and Colo-205 116 (NCI, passage no. 3) were procured from National Cancer Institute, USA. HCT-116 and Colo-205 cells were grown in McCoy's 5A and RPMI growth medium respectively containing 10% FCS, 100 U penicillin and […] per mL medium. Cells were grown in CO2 incubator (Thermocon Electron Corporation, Houston, Tex.) at 37° C. with 95% humidity and 5% CO2 gas environment. Cells treated with tested materials were dissolved in DMSO while the untreated control cultures received only the vehicle (DMSO<0.2%). Cells were seeded in 96 well plates and exposed to tested compounds at various concentrations for 48 h time interval. MTT dye (2.5 mg/ml in PBS) was added 4 hrs priors to experiment termination. The plates were then centrifuged at 1500 rpm for 15 min and the supernatant was discarded, and MTT formazan crystals were dissolved in 150 μl of DMSO. The OD measured at 570 nm with reference wavelength of 620 nm.
(§2) The percentages of cell viability and growth inhibition were calculated using formulas: […]
For orientation: Tetrazolium assays rely on reduction of a dye to a coloured formazan, in cell work by metabolically active cells.

Another data set concerns Colo-205. The data set is described as follows: Antiproliferative activity, MTT assay, Colo-205. The settings on record: Homo sapiens, 48 h. The format is cell-based. Here is the method:
as §1, §2

[3] abbreviates: day 13, i/p day 1-9, 1 0.75 mg/kg, 1g 1 mg/kg, 5-fluorouracil 22 mg/kg.
The mark [4] stands for this setting: i/p day 1-9, 1 0.75 mg/kg, 1g 1 mg/kg, 5-fluorouracil 22 mg/kg.
[5] abbreviates: aqueous buffer, phosphate buffer saline, read-out: Solubility, PBS.
Where [6] appears, read: fassgf or other biorelevant, simulated intestinal fluid, read-out: Solubility, SIF.
The mark [7] stands for this setting: simulated gastric fluid, read-out: Solubility, SGF.
Where [8] appears, read: water, read-out: Solubility, Water.

Take `O=c1[nH]cc(F)c(=O)[nH]1` [5-Fluorouracil]: in the data set with Ehrlich solid tumor (setting [3]), the “Day 13 Avg. tumor weights” value came to 668.2 mg. In the data set with Ehrlich solid tumor (setting [4]), the “% Tumor Growth Inhibition” value is recorded as 54.78% and the Mortality is 0/7.

As to `COc1cc2c(c(OC)c1OC)-c1ccc(OC)c(=O)cc1[C@@H](NC(C)=O)CC2` [Compound 1, Colchicine], the “% intracellular accumulation of Rh123 in LS180 cells” value in the data set on P-gp (control = 100%) was found to be 62%. Further, the EC50 in the data set on P-gp turned out to be 14.4 nM. In addition, the “mortality, animals in the group of 7 animals” value in the data set on Ehrlich solid tumor (colchicine 0.75 mg/kg, i/p) was 2 animals; with Ehrlich solid tumor (colchicine 1 mg/kg, i/p, text and footnote), 5 animals. Besides, the “Avg. body weights (g) of animal on days 1” value with Ehrlich solid tumor (day 1, i/p day 1-9, 1 0.75 mg/kg, 1g 1 mg/kg, 5-fluorouracil 22 mg/kg) is recorded as 22.28 g. In addition, the “Avg. body weights (g) of animal on days 5” value with Ehrlich solid tumor (day 5, i/p day 1-9, 1 0.75 mg/kg, 1g 1 mg/kg, 5-fluorouracil 22 mg/kg) was found to be 21.42 g. Besides, the “Avg. body weights (g) of animal on days 9” value with Ehrlich solid tumor (day 9, i/p day 1-9, 1 0.75 mg/kg, 1g 1 mg/kg, 5-fluorouracil 22 mg/kg) turned out to be 20.2 g. The “Day 13 Avg. body weights” value in the data set on Ehrlich solid tumor (setting [3]) is 19.25 g. Besides, in the data set on Ehrlich solid tumor (setting [3]), the “Day 13 Avg. tumor weights” value worked out at 705.0 mg. The “% Tumor Growth Inhibition” value in the data set with Ehrlich solid tumor (setting [4]) was found to be 52.29%. In addition, the Mortality in the data set with Ehrlich solid tumor (colchicine 1 mg/kg, i/p) is reported as 5/7; with Ehrlich solid tumor (setting [4]) it was 2/7. Moreover, the “disruption of microtubule assembly” value in data set [1] was “remarkable disruption and loss of microtubules”. Also, the solubility is 800 µg/mL (≈ 2000 µM) in data set [2] (setting [5]), 800 µg/mL (≈ 2000 µM) in data set [2] (setting [6]), 200 µg/mL (≈ 501 µM) in data set [2] (setting [7]) and > 1500 µg/mL in data set [2] (setting [8]).

In the case of `COc1cc2c(c(OC)c1OC)-c1ccc(N3CCNCC3)c(=O)cc1[C@@H](NC(C)=O)CC2` [Compound 1a, N-[(7S)-1,2,3-Trimethoxy-9-oxo-10-(piperazin-1-yl)-5,6,7,9-tetrahydrobenzo[a]heptalen-7-yl]acetamide], the melting point was 158 to 161 °C. Further, the “% intracellular accumulation of Rh123 in LS180 cells” value with P-gp (control = 100%) came to 90%. Besides, the IC50 with HCT-116 (Homo sapiens, HCT-116, 48 h) was > 10000 nM. For the same compound, in the data set with Colo-205, the concentration for half-maximal inhibition (IC50) is 8000 nM.

As for `COc1cc2c(c(OC)c1OC)-c1ccc(N3CCC(N)CC3)c(=O)cc1[C@@H](NC(C)=O)CC2` [Compound 1b, N-[(7S)-1,2,3-Trimethoxy-9-oxo-10-(4-amino-piperidin-1-yl)-5,6,7,9-tetrahydrobenzo[a]heptalen-7-yl]acetamide], in the data set with P-gp (control = 100%), the “% intracellular accumulation of Rh123 in LS180 cells” value amounted to 90%. Further, the IC50 with HCT-116 (Homo sapiens, HCT-116, 48 h) turned out to be 10000 nM; with Colo-205, 5000 nM.

On to `COc1cc2c(c(OC)c1OC)-c1ccc(N3CCN(C(=O)OC(C)(C)C)CC3)c(=O)cc1C(NC(C)=O)CC2` [Compound 1c, N-[(7S)-1,2,3-Trimethoxy-9-oxo-10-(N-boc-piperazin-1-yl)-5,6,7,9-tetrahydrobenzo[a]heptalen-7-yl]acetamide], for which the IC50 with HCT-116 (Homo sapiens, HCT-116, 48 h) worked out at 4000 nM; in the data set with Colo-205 it was 3000 nM.

For the compound `COc1cc2c(c(OC)c1OC)-c1ccc(N3CCC(c4ccccc4)CC3)c(=O)cc1C(NC(C)=O)CC2` [Compound 1d, N-[(7S)-1,2,3-Timethoxy-9-oxo-10-(4-phenyl-piperidin-1-yl)-5,6,7,9-tetrahydrobenzo[a]heptalen-7-yl]acetamide], in the data set with P-gp (control = 100%), the “% intracellular accumulation of Rh123 in LS180 cells” value was 90%. For the same compound, the EC50 in the data set with P-gp was found to be 29.6 nM. For the same compound, the IC50 in the data set with HCT-116 (48 h) was 1000 nM; in the data set with HCT-116 (Homo sapiens, HCT-116, 48 h) it was ≤ 1000 nM; with Colo-205, 800 nM. Further, the solubility in data set [2] (setting [5]) was 80 µg/mL (≈ 151 µM); in data set [2] (setting [6]) it was 20 µg/mL (≈ 37.8 µM); in data set [2] (setting [7]), > 1500 µg/mL; in data set [2] (setting [8]), 80 µg/mL (≈ 151 µM).

Consider `COc1cc2c(c(OC)c1OC)-c1ccc(N3CCC[C@@H]3CO)c(=O)cc1C(NC(C)=O)CC2` (stereo partly drawn) [Compound 1e, N-[(7S)-1,2,3-Trimethoxy-9-oxo-10-(L-prolinol-1-yl)-5,6,7,9-tetrahydrobenzo[a]heptalen-7-yl]acetamide], for which the IC50 with HCT-116 (Homo sapiens, HCT-116, 48 h) stood at 10000 nM; in the data set on Colo-205 it was 8000 nM.

Take `COc1cc2c(c(OC)c1OC)-c1ccc(N3CCc4c([nH]c5ccccc45)C3)c(=O)cc1[C@@H](NC(C)=O)CC2` [Compound 1f, N-[(7S)-1,2,3-Trimethoxy-9-oxo-10-(2,3,4,9-tetrahydro-1H-pyrido[3,4-b]indole-2-yl)-5,6,7,9-tetrahydrobenzo[a]heptalen-7-yl]acetamide]: in the data set with P-gp (control = 100%), the “% intracellular accumulation of Rh123 in LS180 cells” value worked out at 90%. For the same compound, the IC50 with HCT-116 (Homo sapiens, HCT-116, 48 h) worked out at 3000 nM; with Colo-205, 800 nM.

On to `CO[C@H]1/C=C/O[C@@]2(C)Oc3c(C)c(O)c4c(O)c(c(/C=N/N5CCN(C)CC5)c(O)c4c3C2=O)NC(=O)/C(C)=C\C=C\[C@H](C)[C@H](O)[C@@H](C)[C@@H](O)[C@@H](C)[C@H](OC(C)=O)[C@@H]1C` [rifampicin, reference compound], for which, in the data set with P-gp (rifampicin 10 μM, positive control, control = 100%), the “% intracellular accumulation of Rh123” value amounted to 69%.
